Test results published in patent US10011571B2, “Preparation method for aromatic heterocyclic compound used as selective JAK3 and/or JAK1 kinase inhibitor and application of aromatic heterocyclic compound” (SHENZHEN CHIPSCREEN BIOSCIENCES, LTD., priority 2014, dated 2018).

How the values were obtained:
ITK = ITK (Homo sapiens (Human), UniProt Q08881); assay: Eurofins IC50Profiler radiometric kinase assay, ITK; format: biochemical; conditions: 9 semilog concentrations
Source text: (§1) A proportion of the compounds of the present invention are subjected to kinase profile screening (KinaseProfiler™)) and enzymatic inhibitory activity (IC50Profiler™)) assay by entrusting Eurofins company (http://www.eurofins.com). Besides the kinases in the JAK family, the kinases that have been screened for their activity also include most Group 3F and Group 4 kinases (ITK, BLK, TBK1, VEGFRs, ERBBs, etc.), and blood system related kinases (Zhang J. et al. 2009, Nat. Rev. Cancer., 9: 28-39). The concentration of the test compound for kinase profile screening is 1 μM, and a gradient of 9 semilog concentration gradients are used to determine IC50. Detection is carried out according to standard procedure of Eurofins Company. Briefly, according to the requirements of different kinase reactions, 0.2 μL test compound (50 μM, dissolved in dimethyl sulfoxide (DMSO)) is added to reaction buffer containing specific kinase (the buffer system containing 20 mM MOPS, 1 mM EDTA, 0.01% Brij-35, 5% Glycerol, 0.1% β-mercaptoethanol, 1 mg/mL BSA, or 50 mM TRIS, 0.1 mM EGTA, 0.1 mM Na3VO4, 0.1% β-mercaptoethanol, 1 mg/mL BSA, based on the type of kinase used). Subsequently, a kinase specific substrate at a final concentration of 50 μM (specific substrate used for specific kinase), 10 mM Mg Acetate and isotope-labeled γ-^33P ATP (radio-activity of about 500 cpm/pmol) are sequentially added to a total volume of 10 μL for the reaction system. After incubation at room temperature for 40 min, the reaction is terminated by adding 3% phosphoric acid solution. The mixture is then transferred to a filter-type low temperature spray dryer (P30 filtermat), and washed by 75 mM phosphoric acid solution for 3 times and by methanol once. After drying, radio-activity is detected. For specific procedure, see the standard procedure provided by Eurofins Company: http://www.eurofins.com/media/9724077/kinaseprofiler_assay_protocol_guide_eurofins_v64.pdf).

Flt4 = Flt4 (Homo sapiens (Human), UniProt P35916); assay: Eurofins IC50Profiler radiometric kinase assay, Flt4; format: biochemical; conditions: 9 semilog concentrations
Sequence of Flt4 (P35916 25-1363, species assumed): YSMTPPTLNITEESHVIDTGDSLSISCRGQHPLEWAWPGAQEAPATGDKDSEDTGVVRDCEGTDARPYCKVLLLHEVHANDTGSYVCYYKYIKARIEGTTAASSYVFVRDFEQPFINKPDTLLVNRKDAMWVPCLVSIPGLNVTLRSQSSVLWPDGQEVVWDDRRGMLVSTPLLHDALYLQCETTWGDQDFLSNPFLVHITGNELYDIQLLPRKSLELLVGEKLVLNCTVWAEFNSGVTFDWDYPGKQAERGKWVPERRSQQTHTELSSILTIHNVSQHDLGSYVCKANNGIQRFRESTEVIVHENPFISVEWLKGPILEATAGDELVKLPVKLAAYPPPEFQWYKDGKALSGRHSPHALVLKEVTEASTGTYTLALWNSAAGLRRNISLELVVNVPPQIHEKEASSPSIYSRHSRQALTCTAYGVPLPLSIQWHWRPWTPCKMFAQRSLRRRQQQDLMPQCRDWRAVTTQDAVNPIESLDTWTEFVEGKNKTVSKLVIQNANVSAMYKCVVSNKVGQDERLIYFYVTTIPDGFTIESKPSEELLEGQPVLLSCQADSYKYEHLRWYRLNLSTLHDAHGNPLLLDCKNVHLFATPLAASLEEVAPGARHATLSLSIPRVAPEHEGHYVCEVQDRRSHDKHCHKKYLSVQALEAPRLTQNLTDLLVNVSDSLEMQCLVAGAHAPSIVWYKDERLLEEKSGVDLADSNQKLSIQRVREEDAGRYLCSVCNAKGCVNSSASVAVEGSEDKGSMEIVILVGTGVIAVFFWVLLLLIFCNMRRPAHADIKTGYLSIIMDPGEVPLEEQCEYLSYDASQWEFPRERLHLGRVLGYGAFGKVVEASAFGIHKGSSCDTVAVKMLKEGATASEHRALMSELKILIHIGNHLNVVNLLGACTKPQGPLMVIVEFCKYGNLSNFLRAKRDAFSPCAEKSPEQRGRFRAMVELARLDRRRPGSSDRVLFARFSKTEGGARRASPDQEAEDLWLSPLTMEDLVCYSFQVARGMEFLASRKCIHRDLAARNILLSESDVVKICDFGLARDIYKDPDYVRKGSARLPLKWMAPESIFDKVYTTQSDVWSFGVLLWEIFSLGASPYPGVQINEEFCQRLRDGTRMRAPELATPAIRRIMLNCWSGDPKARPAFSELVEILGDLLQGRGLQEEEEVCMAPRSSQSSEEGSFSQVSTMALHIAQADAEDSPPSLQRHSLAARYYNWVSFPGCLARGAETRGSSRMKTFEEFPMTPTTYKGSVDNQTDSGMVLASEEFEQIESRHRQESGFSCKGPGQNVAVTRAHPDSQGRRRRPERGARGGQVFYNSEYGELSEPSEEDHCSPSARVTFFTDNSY
Source text: as §1

CTLL-2 cells = assay: Cell growth activity assay (MTS), CTLL-2 cell model; format: cell-based, mouse; conditions: Mus musculus; for activity at 0.3 µM: CTLL-2, 300 nM, 24 h, read-out: CTLL-2 % growth rate @300 nM; for GI50: CTLL-2, 24 h
Procedure, shortened: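 Mouse IL-2-dependent T-cell line seeded ~20,000 cells/well, compounds added after 24 h at gradient concentrations (top 10 μM; CTLL-2 evaluation at 300 nM), cultured another 24 h. MTS/PMS added, 2 h at 37° C, absorbance 490 nm; inhibition vs DMSO control after negative-control background subtraction, GI50 calculated; triplicate.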

HeLa cells = assay: Cell growth activity assay (MTS), HeLa cell model; format: cell-based, human; parameters: activity: dose or concentration left out as unconfirmed; conditions: Homo sapiens, HeLa, 72 h; for activity: read-out: HeLa % growth rate
Procedure, shortened: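 HeLa human cervical cancer cells were plated at about 5000 cells/well in a 96-well plate. After 24 h, test compounds were added in concentration gradients (highest final concentration 40 μM), alongside a DMSO solvent control and a negative control. After another 72 h, the medium was replaced with 100 μL fresh medium plus 20 μL MTS/PMS (20:1). Plates were incubated 2 h at 37° C. and absorbance was read at 490 nm to give growth inhibition and GI50.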

HUVEC cells = assay: Cell growth activity assay (MTS), HUVEC cell model; format: cell-based; conditions: Homo sapiens, 72 h; for activity at 10 µM: read-out: HUVEC % growth rate @10 μM
Source text: MTS assay is a routine method for cell toxicity detection. The basic principle is based on the capacity of dehydrogenase in the mitochondria of living cells to reduce a novel yellow […] MTS to formazan, so that the amount of living cells is proportional to the amount of formazan product by detecting the absorbance at 490 nm (OD), thereby speculating the amount of living cells according to the OD value, and understanding the capacity of the test compound to inhibit the growth of cells or to kill the cells.
HeLa cell is a human cervical cancer cell line, and belongs to epithelial tumor cell line; HUVEC is a human umbilical vein endothelial cell, and belongs to primary endothelial cell; both types of cells express all subtypes except for JAK3.
The change of JAK kinase activity has no significant influence on other cell types except for the immune cells, and both cell models mentioned above are mainly used to evaluate whether there are any other kinase targets besides JAK kinases or there are nonselective cell toxicities.
In this experiment, a cultured cell model is incubated with the test compounds at different concentrations for a specific duration. The effect of the treatment by the test compound on the growth of cells is detected using MTS assay.
MTS is performed according to routine procedure in a 96-well plate.
The model cells are inoculated into each well of the 96-well plate at an appropriate concentration (about 5000 cells/well). After 24 h, the test compounds are added at different concentration gradients (the highest final concentration is 40 μM). A solvent control (DMSO) and a negative control are also performed at the same time. Each experiment is repeated for 3 times. The cells are detected after cultured for another 72 h.
After all culture medium is aspirated out of the well, 100 μL fresh medium and 20 μL pre-formulated mixture of MTS and PMS (in a ratio of 20:1) are added to each well. After incubation at 37° C. for 2 h, it is then detected by a microplate reader (490 nm).
The cell growth inhibitory rate and GI50 of the test compound are calculated as above.
Based on the above method, cytological evaluation is performed to the compounds described herein (for the detection of CTLL-2 cell, the concentration of the test compound is 300 nM; […]).

TYK2 = TYK2 (Homo sapiens (Human), UniProt P29597); assay: Eurofins IC50Profiler radiometric kinase assay, TYK2; format: biochemical; conditions: 9 semilog concentrations
Sequence of TYK2 (P29597 whole entry, species assumed): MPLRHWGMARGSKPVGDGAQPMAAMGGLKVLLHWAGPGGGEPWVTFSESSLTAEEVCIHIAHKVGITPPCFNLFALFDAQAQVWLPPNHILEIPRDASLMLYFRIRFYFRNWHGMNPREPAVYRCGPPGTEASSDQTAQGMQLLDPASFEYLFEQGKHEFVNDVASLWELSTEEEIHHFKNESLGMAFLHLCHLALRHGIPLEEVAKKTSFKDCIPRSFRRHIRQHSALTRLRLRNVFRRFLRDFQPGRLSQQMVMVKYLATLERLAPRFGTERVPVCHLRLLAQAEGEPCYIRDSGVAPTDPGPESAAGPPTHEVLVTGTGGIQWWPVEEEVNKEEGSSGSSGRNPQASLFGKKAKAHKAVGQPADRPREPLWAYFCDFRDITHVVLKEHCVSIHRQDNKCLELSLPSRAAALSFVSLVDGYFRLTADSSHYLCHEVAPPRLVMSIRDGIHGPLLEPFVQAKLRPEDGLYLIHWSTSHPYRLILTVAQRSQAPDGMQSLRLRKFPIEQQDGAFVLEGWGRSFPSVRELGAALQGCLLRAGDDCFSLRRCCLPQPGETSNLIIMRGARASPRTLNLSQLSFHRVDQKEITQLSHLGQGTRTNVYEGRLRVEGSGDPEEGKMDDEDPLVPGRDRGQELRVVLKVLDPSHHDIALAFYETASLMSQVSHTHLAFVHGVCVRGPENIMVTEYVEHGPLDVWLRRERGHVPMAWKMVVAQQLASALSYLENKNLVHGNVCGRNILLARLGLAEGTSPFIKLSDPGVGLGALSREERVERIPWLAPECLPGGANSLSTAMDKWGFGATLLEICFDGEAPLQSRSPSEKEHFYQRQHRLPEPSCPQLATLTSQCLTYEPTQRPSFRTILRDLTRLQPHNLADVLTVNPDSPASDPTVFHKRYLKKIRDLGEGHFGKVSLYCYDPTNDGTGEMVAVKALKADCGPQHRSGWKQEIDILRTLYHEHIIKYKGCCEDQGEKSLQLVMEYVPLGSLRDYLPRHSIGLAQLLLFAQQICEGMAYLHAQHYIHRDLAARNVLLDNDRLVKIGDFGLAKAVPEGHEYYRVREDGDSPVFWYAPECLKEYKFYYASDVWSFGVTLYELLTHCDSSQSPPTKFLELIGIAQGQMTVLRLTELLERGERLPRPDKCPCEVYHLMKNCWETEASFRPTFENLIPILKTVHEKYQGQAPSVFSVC
Source text: A proportion of the compounds of the present invention are subjected to kinase profile screening (KinaseProfiler™)) and enzymatic inhibitory activity (IC50Profiler™)) assay by entrusting Eurofins company (http://www.eurofins.com). Besides the kinases in the JAK family, the kinases that have been screened for their activity also include most Group 3F and Group 4 kinases (ITK, BLK, TBK1, VEGFRs, ERBBs, etc.), and blood system related kinases (Zhang J. et al. 2009, Nat. Rev. Cancer., 9: 28-39). The concentration of the test compound for kinase profile screening is 1 μM, and a gradient of 9 semilog concentration gradients are used to determine IC50. Detection is carried out according to standard procedure of Eurofins Company. Briefly, according to the requirements of different kinase reactions, 0.2 μL test compound (50 μM, dissolved in dimethyl sulfoxide (DMSO)) is added to reaction buffer containing specific kinase (the buffer system containing 20 mM MOPS, 1 mM EDTA, 0.01% Brij-35, 5% Glycerol, 0.1% β-mercaptoethanol, 1 mg/mL BSA, or 50 mM TRIS, 0.1 mM EGTA, 0.1 mM Na3VO4, 0.1% β-mercaptoethanol, 1 mg/mL BSA, based on the type of kinase used). […] After drying, radio-activity is detected. […]

Sequence of ITK (Q08881 whole entry, species assumed): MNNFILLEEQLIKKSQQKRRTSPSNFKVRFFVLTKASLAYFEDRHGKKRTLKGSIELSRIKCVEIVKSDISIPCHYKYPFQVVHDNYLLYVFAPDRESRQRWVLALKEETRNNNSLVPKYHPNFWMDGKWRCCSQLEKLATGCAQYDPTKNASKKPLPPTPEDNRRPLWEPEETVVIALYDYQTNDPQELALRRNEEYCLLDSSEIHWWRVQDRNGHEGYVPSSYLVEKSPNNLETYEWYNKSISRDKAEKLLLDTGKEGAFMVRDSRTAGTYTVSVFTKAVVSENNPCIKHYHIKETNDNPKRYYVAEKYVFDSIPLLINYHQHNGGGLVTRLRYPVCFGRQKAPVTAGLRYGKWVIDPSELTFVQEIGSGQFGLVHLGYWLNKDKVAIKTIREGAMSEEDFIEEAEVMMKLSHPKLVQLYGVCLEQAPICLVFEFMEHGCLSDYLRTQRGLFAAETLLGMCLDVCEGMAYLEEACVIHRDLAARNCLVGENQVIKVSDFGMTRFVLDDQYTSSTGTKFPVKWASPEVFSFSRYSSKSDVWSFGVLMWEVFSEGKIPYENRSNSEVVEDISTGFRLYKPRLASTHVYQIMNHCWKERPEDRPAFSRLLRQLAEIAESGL

Structure (SMILES)	IC50 (ITK) [nM]	IC50 (Flt4) [nM]	activity at 0.3 µM (CTLL-2 cells) [%]	GI50 (CTLL-2 cells) [nM]	activity (HeLa cells) [%]	activity at 10 µM (HUVEC cells) [%]	GI50 (HUVEC cells) [nM]	IC50 (TYK2) [nM]	GI50 (HeLa cells) [nM]
C=CC(=O)N(C)c1cc(Nc2ncc(Cl)c(NCCCNC(=O)c3ccc(F)cc3)n2)ccc1F [Example 23, N-(3-(5-chloro-2-(4-fluoro-3-(N-methylacrylamido)phenylamino)pyrimidinyl-4-amino)propyl)-4-fluorobenzamide]	> 10000	42	4	140	96	112	> 40000	–	–
C=CC(=O)N(C)c1cc(Nc2ncc(Cl)c(NCCCNC(=O)c3ccc(C(F)(F)F)cc3)n2)ccc1F [Example 22, N-(3-(5-chloro-2-(4-fluoro-3-(N-methylacrylamido)phenylamino)pyrimidinyl-4-amino)propyl)-4-trifluoromethylbenzamide]	> 10000	> 10000	7	249	78	116	> 40000	> 10000	> 40000
C=CC(=O)N(C)c1cc(Nc2ncc(Cl)c(NCCCNC(=O)c3ccc(C#N)cc3)n2)ccc1F [Example 7, N-(3-(5-chloro-2-(4-fluoro-3-(N-methylacrylamido)phenylamino)pyrimidinyl-4-amino)propyl)-4-cyano-benzamide]	319	107	10	116	98	94	> 40000	> 10000	> 40000
